The record followed here is patent US8969552B2, “Arylsulfonylmethyl or arylsulfonamide substituted aromatic compounds suitable for treating disorders that respond to modulation of the dopamine D3 receptor” (AbbVie Deutschland GmbH & Co. KG, priority 2004, dated 2015).

Structures are written as SMILES. Counter-ions that a name gives are not always drawn.

The target in assay [1] is T1, human dopamine D3 receptors (Homo sapiens, UniProt P35462).
T1 construct: expressed in transfected cells; membranes
Briefly: Dopamine D3 receptor binding, [125I]-iodosulpride displacement. Particulars: for Ki: membranes of HEK-293 cells stably expressing human D3 receptor, 0.1 nM [125I]-iodosulpride, 25° C., 60 minutes; for Ki(D2)*/Ki(D3)*: selectivity ratio of receptor binding constants D2 versus D3. The procedure: (§1) The substance to be tested was either dissolved in methanol/Chremophor® (BASF-AG) or in dimethyl sulfoxide and then diluted with water to the desired concentration.
(§2) Each assay mixture was run in triplicate.
The incubation buffer contained 50 mM tris, 120 mM NaCl, 5 mM KCl, 2 mM CaCl2, 2 mM MgCl2 and 0.1% bovine serum albumin, 10 μM quinolone and 0.1% ascorbic acid (prepared fresh daily). The buffer was adjusted to pH 7.4 with HCl.
(§3) Measurement and Analysis:
(§4) After having been incubated at 25° C. for 60 minutes, the assay mixtures were filtered through a Whatman GF/B glass fiber filter under vacuum using a cell collecting device. The filters were transferred to scintillation viols using a filter transfer system. After 4 ml of Ultima Gold® (Packard) have been added, the samples were shaken for one hour and the radioactivity was then counted in a Beta-Counter (Packard, Tricarb 2000 or 2200CA). The cpm values were converted into dpm using a standard quench series and the program belonging to the instrument.
(§5) The inhibition curves were analyzed by means of iterative nonlinear regression analysis using the Statistical Analysis System (SAS) which is similar to the “LIGAND” program described by Munson and Rodbard.
(§6) The results of the receptro binding studies are expressed as receptor binding constants Ki(D2) and Ki(D3), respectively, as herein before described, and given in table 2.

The target in assay [2] is T2, human dopamine D2L receptors (long isoform) (Homo sapiens, UniProt P14416).
T2 construct: expressed in transfected cells; membranes
As to the kind of experiment: Dopamine D2L receptor binding, [125I] iodospiperone displacement. The conditions noted are these: membranes of HEK-293 cells stably expressing human D2L receptor; 0.01 nM [125I] iodospiperone; 25° C., 60 minutes; read-out: Ki(D2)*. The procedure: as §1, §2
The incubation buffer contained 50 mM tris, 120 mM NaCl, 5 mM KCl, 2 mM CaCl2, 2 mM MgCl2 and 0.1% bovine serum albumin. The buffer was adjusted to pH 7.4 with HCl.
as §3, §4, §5, §6

T1 sequence (P35462 whole entry): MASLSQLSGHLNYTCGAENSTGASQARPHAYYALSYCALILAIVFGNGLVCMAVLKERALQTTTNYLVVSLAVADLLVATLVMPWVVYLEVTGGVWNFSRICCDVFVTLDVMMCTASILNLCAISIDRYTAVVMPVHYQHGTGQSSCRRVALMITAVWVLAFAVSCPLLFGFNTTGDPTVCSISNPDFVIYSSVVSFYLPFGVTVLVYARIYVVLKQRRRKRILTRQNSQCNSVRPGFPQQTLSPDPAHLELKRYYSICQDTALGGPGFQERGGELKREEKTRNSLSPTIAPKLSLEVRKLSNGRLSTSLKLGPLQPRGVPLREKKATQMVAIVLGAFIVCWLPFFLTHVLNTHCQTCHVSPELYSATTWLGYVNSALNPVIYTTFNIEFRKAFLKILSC
T2 sequence (P14416 whole entry, canonical isoform): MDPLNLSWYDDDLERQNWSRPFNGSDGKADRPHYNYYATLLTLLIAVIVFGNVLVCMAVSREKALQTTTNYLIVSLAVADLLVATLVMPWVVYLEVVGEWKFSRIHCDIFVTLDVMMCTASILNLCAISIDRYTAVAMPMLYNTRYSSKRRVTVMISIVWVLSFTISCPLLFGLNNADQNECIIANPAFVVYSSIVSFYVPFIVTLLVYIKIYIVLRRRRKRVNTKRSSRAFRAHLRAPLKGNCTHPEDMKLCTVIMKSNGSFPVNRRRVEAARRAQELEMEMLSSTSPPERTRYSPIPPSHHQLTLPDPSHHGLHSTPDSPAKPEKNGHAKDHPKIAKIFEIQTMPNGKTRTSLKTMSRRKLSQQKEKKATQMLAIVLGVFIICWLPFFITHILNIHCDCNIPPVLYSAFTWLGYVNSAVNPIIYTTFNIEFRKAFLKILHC

Broadly, the Ki is the dissociation constant of the complex between target and ligand, obtained from inhibition or displacement. Turning to `CCCN[C@H]1CCc2cc(NS(=O)(=O)c3ccc(-c4cnco4)s3)ccc2C1` [Example 38, 5-Oxazol-5-yl-thiophene-2-sulfonic acid ((S)-6-propylamino-5,6,7,8-tetrahydro-naphthalen-2-yl)-amide], the Ki in assay [1] was 4.81 nM; in assay [2] it was 727 nM. Besides, in assay [1], the “Ki(D2)*/Ki(D3)*” value is listed as 151.
For the compound `CCCN[C@H]1CCc2cc(NS(=O)(=O)c3ccc(OC(F)F)cc3)ccc2C1` [Example 74, 4-Difluoromethoxy-N—((S)-6-propylamino-5,6,7,8-tetrahydro-naphthalen-2-yl)benzenesulfonamide, hydrochloride], the Ki in assay [2] is 250 nM.
As for `CCCN[C@H]1CCc2cc(N(C)S(=O)(=O)c3ccc(C(C)C)cc3)ccc2C1` [Example 10, 4-Isopropyl-N-methyl-N—((S)-6-propylamino-5,6,7,8-tetrahydro-naphthalen-2-yl)benzenesulfonamide], in assay [1], the Ki was 8.2 nM and the “Ki(D2)*/Ki(D3)*” value was 29. For the same compound, the Ki in assay [2] stood at 238 nM.
On the same counts, the results for `CCCN[C@@H]1CCc2cc(NS(=O)(=O)c3ccc(C(C)C)cc3)ccc2C1` [Example 3, 4-Isopropyl-N—((R)-6-propylamino-5,6,7,8-tetrahydro-naphthalen-2-yl)-benzenesulfonamide] are 0.34 nM, 30 and 10.3 nM.
For the compound `C=CCN[C@H]1CCc2cc(NS(=O)(=O)c3ccc(C(C)C)cc3)ccc2C1.Cl` [Example 7, N—((S)-6-Allylamino-5,6,7,8-tetrahydro-naphthalen-2-yl)-4-isopropyl-benzenesulfonamide, hydrochloride], in assay [1], the Ki stood at 1.97 nM and the “Ki(D2)*/Ki(D3)*” value turned out to be 77. Besides, the Ki in assay [2] was determined as 152 nM.
The like results for `CCCN[C@H]1CCc2cc(NS(=O)(=O)c3ccc(C(C)C(F)(F)F)cc3)ccc2C1` (mixture of isomers) [Example 40, N—((S)-6-Propylamino-5,6,7,8-tetrahydro-naphthalen-2-yl)-4-(2,2,2-trifluoro-1-methyl-ethyl)benzenesulfonamide-racemate] were, in that order, 1.4 nM, 221 and 309 nM.
The like results for `CCCN[C@H]1CCc2cc(NS(=O)(=O)c3ccc(C(C)C(F)F)cc3)ccc2C1.Cl` (stereo partly drawn) [Example 77, 4-(2,2-Difluoro-1-methyl-ethyl)-N—((S)-6-propylamino-5,6,7,8-tetrahydro-naphthalen-2-yl)benzenesulfonamide, hydrochloride] were, in that order, 1.65 nM, 304 and 501 nM.
In the case of `C=CCN[C@@H]1CCc2cc(NS(=O)(=O)c3ccc(C(C)C)cc3)ccc2C1.Cl` [Example 6, N—((R)-6-Allylamino-5,6,7,8-tetrahydro-naphthalen-2-yl)-4-isopropyl-benzenesulfonamide, hydrochloride], in assay [1], affinity was put at a Ki of 0.28 nM and the “Ki(D2)*/Ki(D3)*” value was determined as 52. Besides, the Ki in assay [2] was found to be 14.5 nM.
On the same counts, the results for `CCCNC1COc2cc(NS(=O)(=O)c3ccc(C(C)C)cc3)cnc2C1` (centres unmarked) [Example 35, 4-Isopropyl-N-(3-propylamino-3,4-dihydro-2H-pyrano[3,2-b]pyridin-7-yl)benzenesulfonamide] are 30.4 nM, 406 and 12300 nM.
On the same counts, the results for `CCC(=O)N1CCC[C@@H]2Cc3cc(NS(=O)(=O)c4ccc(C(C)C)cc4)ccc3C[C@H]21` (relative stereo) [Example 22, trans-4-Isopropyl-N-(1-propionyl-1,2,3,4,4a,5,10,10a-octahydro-benzo[g]quinolin-7-yl)benzenesulfonamide] are 19 nM, 96 and 1830 nM.
On the same counts, the results for `CCCN[C@H]1CCc2cc(NS(=O)(=O)c3ccc(-c4ccon4)s3)ccc2C1` [Example 43, 5-Isoxazol-3-yl-thiophene-2-sulfonic acid ((S)-6-propylamino-5,6,7,8-tetrahydro-naphthalen-2-yl)-amide] are 30.7 nM, 113 and 3480 nM.
`C=CCN[C@H]1CCc2cc(N(C)S(=O)(=O)c3ccc(C(C)C)cc3)ccc2C1` [Example 9, N—((S)-6-Allylamino-5,6,7,8-tetrahydro-naphthalen-2-yl)-4-isopropyl-N-methylbenzenesulfonamide]: in assay [1], the Ki was found to be 15.3 nM and the “Ki(D2)*/Ki(D3)*” value was found to be 27. Moreover, in assay [2], the Ki was determined as 416 nM.
The like results for `CCCN[C@@H]1CCc2ccc(NS(=O)(=O)c3ccc(C(C)C)cc3)cc2C1` [Example 2, (R)-4-Isopropyl-N—((R)-7-propylamino-5,6,7,8-tetrahydro-naphthalen-2-yl)benzenesulfonamide] were, in that order, 14 nM, 32 and 442 nM.
Regarding `CCCN[C@H]1CCc2cc(NS(=O)(=O)c3ccc(C(C)C)cc3)ccc2C1.Cl` [Example 8, 4-Isopropyl-N—((S)-6-propylamino-5,6,7,8-tetrahydro-naphthalen-2-yl)-benzenesulfonamide, hydrochloride], the Ki turned out to be 0.5 nM in assay [1] and 50.6 nM in assay [2]. The “Ki(D2)*/Ki(D3)*” value in assay [1] was determined as 102.
The like results for `C=CCN1CCC[C@H]2c3cc(NS(=O)(=O)c4ccc(C(C)C)cc4)ccc3CC[C@@H]21` [Example 20, N-((4aS,10bS)-4-Allyl-1,2,3,4,4a,5,6,10b-octahydro-benzo[f]quinolin-9-yl)-4-isopropylbenzenesulfonamide] were, in that order, 7.5 nM, 339 nM and 45.
On the same counts, the results for `CCCN[C@H]1CCc2cc(NS(=O)(=O)c3ccc(-n4cccn4)cc3)ccc2C1.Cl` [Example 76, N—((S)-6-Propylamino-5,6,7,8-tetrahydro-naphthalen-2-yl)-4-pyrazol-1-ylbenzenesulfonamide, hydrochloride] are 8.62 nM, 728 nM and 84.
The like results for `CCCNC1CCc2cc(NS(=O)(=O)c3ccc(C(C)C)cc3)cnc2C1` (centres unmarked) [Example 15, 4-Isopropyl-N-(7-propylamino-5,6,7,8-tetrahydro-quinolin-3-yl)-benzenesulfonamide] were, in that order, 11.3 nM, 476 nM and 42.
With `CCCN[C@H]1CCc2cc(NS(=O)(=O)c3ccc([C@@H](C)C(F)(F)F)cc3)ccc2C1` [Example 41, N—((S)-6-Propylamino-5,6,7,8-tetrahydro-naphthalen-2-yl)-4-((R)-2,2,2-trifluoro-1-methylethyl)-benzenesulfonamide], in assay [1], affinity was put at a Ki of 12.2 nM and the “Ki(D2)*/Ki(D3)*” value turned out to be 101. Besides, the inhibition constant Ki in assay [2] is 1230 nM.
For `CCCN[C@H]1CCc2cc(NS(=O)(=O)c3ccc(N4CCOCC4)cc3)ccc2C1` [Example 45, 4-Morpholin-4-yl-N—((S)-6-propylamino-5,6,7,8-tetrahydro-naphthalen-2-yl)benzenesulfonamide], in assay [1], the Ki is 13.9 nM and the “Ki(D2)*/Ki(D3)*” value turned out to be 94. The Ki in assay [2] amounted to 1310 nM.
Consider `CCCN[C@H]1CCc2cc(NS(=O)(=O)c3ccc([C@H](C)CF)cc3)ccc2C1.Cl` [Example 55, 4-((S)-2-Fluoro-1-methyl-ethyl)-N—((S)-6-propylamino-5,6,7,8-tetrahydro-naphthalen-2-yl)benzenesulfonamide, hydrochloride], for which, in assay [1], the Ki stood at 1.7 nM and the “Ki(D2)*/Ki(D3)*” value amounted to 230.
On to `CCCN[C@H]1CCc2cc(NS(=O)(=O)c3ccc(C(C)=O)cc3)ccc2C1` [Example 60, 4-Acetyl-N—((S)-6-propylamino-5,6,7,8-tetrahydro-naphthalen-2-yl)-benzenesulfonamide], for which, in assay [1], the Ki amounted to 9.4 nM and the “Ki(D2)*/Ki(D3)*” value was 274.
On to `CCCN[C@H]1CCc2cc(NS(=O)(=O)c3ccc(C(C)(C)F)cc3)ccc2C1.O=C(O)C(F)(F)F` [Example 62, 4-(1-Fluoro-1-methyl-ethyl)-N—((S)-6-propylamino-5,6,7,8-tetrahydro-naphthalen-2-yl)benzenesulfonamide, trifluoro acetate], for which, in assay [1], the Ki came to 6.2 nM and the “Ki(D2)*/Ki(D3)*” value was found to be 77.
On the same counts, the results for `CCN[C@H]1CCc2cc(NS(=O)(=O)c3ccc(OC(F)(F)F)cc3)ccc2C1.Cl` [Example 63, N—((S)-6-Ethylamino-5,6,7,8-tetrahydro-naphthalen-2-yl)-4-trifluoromethoxybenzenesulfonamide, hydrochloride] are 30.9 nM and 40.
As to `CCCN[C@H]1CCc2cc(NS(=O)(=O)c3ccc(CC(F)(F)F)cc3)ccc2C1.Cl` [Example 47, N—((S)-6-Propylamino-5,6,7,8-tetrahydro-naphthalen-2-yl)-4-(2,2,2-trifluoro-ethyl)benzenesulfonamide, hydrochloride], in assay [1], the Ki turned out to be 5.1 nM and the “Ki(D2)*/Ki(D3)*” value is 70.
